“And” between values parts separate entries of the source, which are not always exact repeats. Equal entries are not always repeated.
Tests used:
AR [1] = molecular target: T1, AR (Homo sapiens, UniProt P10275); experiment: SAFETYScan NHR Nuclear Translocation, Agonist; type: cell-based
T1 sequence (P10275 1-920): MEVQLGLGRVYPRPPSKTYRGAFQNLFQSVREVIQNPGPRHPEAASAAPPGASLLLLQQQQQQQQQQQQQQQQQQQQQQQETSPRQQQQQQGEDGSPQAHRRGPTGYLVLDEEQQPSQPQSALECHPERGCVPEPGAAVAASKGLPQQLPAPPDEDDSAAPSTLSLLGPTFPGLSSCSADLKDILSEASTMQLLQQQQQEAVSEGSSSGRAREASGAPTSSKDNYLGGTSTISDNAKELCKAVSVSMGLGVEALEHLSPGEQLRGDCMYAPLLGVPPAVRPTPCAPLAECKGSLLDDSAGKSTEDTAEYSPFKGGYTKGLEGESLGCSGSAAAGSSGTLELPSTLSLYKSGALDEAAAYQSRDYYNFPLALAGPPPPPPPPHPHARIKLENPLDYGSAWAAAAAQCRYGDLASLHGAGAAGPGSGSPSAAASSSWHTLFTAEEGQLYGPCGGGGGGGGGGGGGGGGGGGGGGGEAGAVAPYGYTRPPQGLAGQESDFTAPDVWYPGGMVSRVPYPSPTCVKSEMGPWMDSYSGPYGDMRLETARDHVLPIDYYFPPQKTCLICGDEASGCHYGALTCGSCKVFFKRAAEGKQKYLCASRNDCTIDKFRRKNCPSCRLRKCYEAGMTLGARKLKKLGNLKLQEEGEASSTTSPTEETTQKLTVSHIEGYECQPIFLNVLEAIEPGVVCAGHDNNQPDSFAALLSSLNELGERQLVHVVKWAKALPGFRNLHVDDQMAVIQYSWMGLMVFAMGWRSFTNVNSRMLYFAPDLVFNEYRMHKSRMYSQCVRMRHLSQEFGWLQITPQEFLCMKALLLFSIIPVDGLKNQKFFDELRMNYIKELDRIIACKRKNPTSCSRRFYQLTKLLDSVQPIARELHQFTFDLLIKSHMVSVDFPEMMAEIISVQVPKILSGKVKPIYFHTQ
Excerpt: (§1) Supplement jm1c02175_si_002.xlsx, sheet "SAFETYScan" | column: RC50 (uM); Max Response

HTR2A = HTR2A (Homo sapiens, UniProt P28223); experiment: SAFETYScan GPCR Calcium Flux, Agonist; type: cell-based
Excerpt: as §1

CHRM1 = molecular target: T2, CHRM1 (Homo sapiens, UniProt P11229); experiment: SAFETYScan GPCR Calcium Flux, Agonist; type: cell-based
T2 sequence (P11229 1-460): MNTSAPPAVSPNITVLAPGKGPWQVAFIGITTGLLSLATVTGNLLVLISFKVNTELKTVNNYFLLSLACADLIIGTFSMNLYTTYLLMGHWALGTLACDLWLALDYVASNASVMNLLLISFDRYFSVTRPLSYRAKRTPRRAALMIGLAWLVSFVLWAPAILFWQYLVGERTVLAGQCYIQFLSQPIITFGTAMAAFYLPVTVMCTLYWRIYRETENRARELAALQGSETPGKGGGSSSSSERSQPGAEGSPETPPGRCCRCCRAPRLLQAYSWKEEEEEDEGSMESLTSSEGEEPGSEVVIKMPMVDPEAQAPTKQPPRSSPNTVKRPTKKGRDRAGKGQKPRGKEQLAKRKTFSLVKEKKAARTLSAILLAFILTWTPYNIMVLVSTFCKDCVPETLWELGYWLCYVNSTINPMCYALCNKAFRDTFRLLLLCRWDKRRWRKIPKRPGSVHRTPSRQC
Excerpt: as §1

AVPR1A = AVPR1A (Homo sapiens, UniProt P37288); experiment: SAFETYScan GPCR Calcium Flux, Agonist; type: cell-based
Excerpt: as §1

ADORA2A = ADORA2A (Homo sapiens, UniProt P29274); experiment: SAFETYScan GPCR Calcium Flux, Agonist; type: cell-based
Excerpt: as §1

CHRM3 = CHRM3 (Homo sapiens, UniProt P20309); experiment: SAFETYScan GPCR Calcium Flux, Agonist; type: cell-based
Excerpt: as §1

human BCL6 BTB domain = human BCL6 BTB domain (Homo sapiens, UniProt P41182)
Method: Assays were performed in a 384-well black Proxiplate (Perkin Elmer) containing 1 nM Trx-6xHis-BCL6 (in
anti-6xHis-Terbium cryptate (CisBio Bioassays, France), in assay buffer (25 mM Hepes pH8, 100 mM NaCl,
0.05% Tween20, 0.5 mM TCEP, 0.05% bovine serum albumin). Test compounds in DMSO or DMSO alone
were added to the wells using an ECHO550 acoustic dispenser (Labcyte Inc) to give the appropriate test
concentration in 0.7% v/v DMSO final. After 2 hours incubation at room temperature the plate was read
The % inhibition at each concentration was calculated by normalising FRET ratio to the
appropriate high (DMSO with all reagents) and low (DMSO without BCL6) controls. IC50 values were
determined using GraphPad Prism 6.0 or Dotmatics (Bishops Stortford, UK) software by fitting the
normalised data to a sigmoidal four-parameter logistic fit equation.

AR [2] = molecular target: T1, AR; experiment: SAFETYScan NHR Nuclear Translocation, Antagonist; type: cell-based
Excerpt: as §1

GR = molecular target: T3, GR (Homo sapiens, UniProt P04150); experiment: SAFETYScan NHR Protein Interaction, Antagonist; type: cell-based
T3 sequence (P04150 1-777): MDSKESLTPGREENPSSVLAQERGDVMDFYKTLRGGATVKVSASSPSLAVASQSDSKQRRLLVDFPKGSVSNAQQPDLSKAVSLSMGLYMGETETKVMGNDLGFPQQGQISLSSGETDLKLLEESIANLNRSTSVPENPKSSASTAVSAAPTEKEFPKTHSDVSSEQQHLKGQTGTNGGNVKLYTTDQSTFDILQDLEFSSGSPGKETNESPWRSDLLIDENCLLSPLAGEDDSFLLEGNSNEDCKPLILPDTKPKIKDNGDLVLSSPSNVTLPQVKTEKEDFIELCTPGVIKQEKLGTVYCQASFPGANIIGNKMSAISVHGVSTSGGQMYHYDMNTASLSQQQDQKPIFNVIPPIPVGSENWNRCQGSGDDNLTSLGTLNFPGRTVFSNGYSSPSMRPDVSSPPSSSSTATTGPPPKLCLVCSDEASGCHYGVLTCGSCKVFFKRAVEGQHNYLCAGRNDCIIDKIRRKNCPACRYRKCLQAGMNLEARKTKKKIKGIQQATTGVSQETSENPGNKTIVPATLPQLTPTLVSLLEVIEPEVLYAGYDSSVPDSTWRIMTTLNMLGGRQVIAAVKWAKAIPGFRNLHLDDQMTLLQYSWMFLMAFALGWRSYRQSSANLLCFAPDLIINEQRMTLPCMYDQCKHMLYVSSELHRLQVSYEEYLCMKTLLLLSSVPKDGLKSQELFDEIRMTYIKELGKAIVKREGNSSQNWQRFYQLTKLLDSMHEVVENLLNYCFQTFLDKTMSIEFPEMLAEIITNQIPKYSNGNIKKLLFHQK
Excerpt: as §1

Chain of HTR2A (P28223 whole entry): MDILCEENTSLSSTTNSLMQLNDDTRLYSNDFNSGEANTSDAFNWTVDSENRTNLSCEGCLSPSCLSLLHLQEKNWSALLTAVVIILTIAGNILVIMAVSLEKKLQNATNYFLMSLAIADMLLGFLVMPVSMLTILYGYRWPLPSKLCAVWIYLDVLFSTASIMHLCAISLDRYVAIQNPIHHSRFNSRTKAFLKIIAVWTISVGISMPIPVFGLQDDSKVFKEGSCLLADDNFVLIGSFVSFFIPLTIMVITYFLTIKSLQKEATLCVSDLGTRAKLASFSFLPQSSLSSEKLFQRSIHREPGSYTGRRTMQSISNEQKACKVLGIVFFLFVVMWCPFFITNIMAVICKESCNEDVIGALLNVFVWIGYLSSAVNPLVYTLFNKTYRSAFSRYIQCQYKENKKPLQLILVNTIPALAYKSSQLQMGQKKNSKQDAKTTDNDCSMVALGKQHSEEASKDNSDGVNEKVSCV
Chain of AVPR1A (P37288 whole entry): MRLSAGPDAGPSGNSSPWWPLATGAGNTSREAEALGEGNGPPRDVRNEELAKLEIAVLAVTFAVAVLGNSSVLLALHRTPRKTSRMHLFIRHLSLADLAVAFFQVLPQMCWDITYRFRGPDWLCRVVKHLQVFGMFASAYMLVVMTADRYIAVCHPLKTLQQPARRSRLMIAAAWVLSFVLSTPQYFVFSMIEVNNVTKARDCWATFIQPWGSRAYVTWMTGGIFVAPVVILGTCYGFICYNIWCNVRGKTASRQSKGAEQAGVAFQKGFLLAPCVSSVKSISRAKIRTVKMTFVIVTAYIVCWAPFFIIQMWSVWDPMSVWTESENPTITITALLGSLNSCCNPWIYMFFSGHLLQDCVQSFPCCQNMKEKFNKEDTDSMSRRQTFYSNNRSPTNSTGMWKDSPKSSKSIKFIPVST
Chain of ADORA2A (P29274 whole entry): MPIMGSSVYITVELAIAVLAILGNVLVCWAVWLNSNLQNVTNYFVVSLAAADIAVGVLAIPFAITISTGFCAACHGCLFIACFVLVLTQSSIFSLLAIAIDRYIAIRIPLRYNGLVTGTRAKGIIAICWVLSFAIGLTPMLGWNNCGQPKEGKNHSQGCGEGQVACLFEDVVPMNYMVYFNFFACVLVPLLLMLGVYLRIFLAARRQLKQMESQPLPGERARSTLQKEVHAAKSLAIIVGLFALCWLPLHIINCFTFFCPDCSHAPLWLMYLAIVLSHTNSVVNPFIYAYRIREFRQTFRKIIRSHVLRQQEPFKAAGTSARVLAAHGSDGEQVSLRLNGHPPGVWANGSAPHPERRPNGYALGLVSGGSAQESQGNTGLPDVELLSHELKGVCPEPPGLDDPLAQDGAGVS
Chain of CHRM3 (P20309 whole entry): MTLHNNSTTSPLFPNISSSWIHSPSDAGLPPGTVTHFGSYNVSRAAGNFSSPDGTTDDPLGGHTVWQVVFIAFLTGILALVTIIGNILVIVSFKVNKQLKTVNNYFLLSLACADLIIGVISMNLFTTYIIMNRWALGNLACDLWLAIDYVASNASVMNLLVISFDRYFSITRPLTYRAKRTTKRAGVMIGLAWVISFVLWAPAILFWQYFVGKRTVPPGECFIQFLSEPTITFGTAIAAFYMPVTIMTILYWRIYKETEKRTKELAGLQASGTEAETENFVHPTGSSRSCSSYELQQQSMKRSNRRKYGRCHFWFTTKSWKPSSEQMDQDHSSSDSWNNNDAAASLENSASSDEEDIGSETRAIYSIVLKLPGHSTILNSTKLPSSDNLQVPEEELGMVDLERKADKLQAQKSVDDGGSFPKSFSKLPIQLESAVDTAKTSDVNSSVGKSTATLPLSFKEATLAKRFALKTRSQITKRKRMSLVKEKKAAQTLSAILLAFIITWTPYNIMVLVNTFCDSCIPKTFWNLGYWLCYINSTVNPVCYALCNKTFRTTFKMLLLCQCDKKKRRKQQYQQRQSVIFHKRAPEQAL

C[C@H]1C[C@@H](O)CN(c2ncc(Cl)c(Nc3ccc4c(c3)c3c(c(=O)n4C)OCC(F)(F)[C@H](C4CC4)N3)n2)C1 [12a CCT373566, (S)-10-((5-Chloro-2-((3R,5S)-3-hydroxy-5-methylpiperidin-1-yl)pyrimidin-4-yl)amino)-2-cyclopropyl-3,3-difluoro-7-methyl-1,2,3,4-tetrahydro-[1,4]oxazepino[2,3-c]quinolin-6(7H)-one]
Emax (AR [1]; read-out: Max Response): 0%
EC50 (AR [1]; read-out: RC50 (EC50)): > 10 µM
Emax (HTR2A; read-out: Max Response): 0%
EC50 (HTR2A; read-out: RC50 (EC50)): > 10 µM
Emax (CHRM1; read-out: Max Response): 3.12%
EC50 (CHRM1; read-out: RC50 (EC50)): > 10 µM
Emax (AVPR1A; read-out: Max Response): 4.09%
EC50 (AVPR1A; read-out: RC50 (EC50)): > 10 µM
Emax (ADORA2A; read-out: Max Response): 0%
EC50 (ADORA2A; read-out: RC50 (EC50)): > 10 µM
Emax (CHRM3; read-out: Max Response): 3.17%
EC50 (CHRM3; read-out: RC50 (EC50)): > 10 µM
BCL6 TR-FRET pIC50 mean (human BCL6 BTB domain; mean of replicates): 8.6638
IC50 (human BCL6 BTB domain; read-out: BCL6 TR-FRET IC50 individual replicates, single replicate values): 2.3 nM (3×) and 2.1 nM (3×)
Emax (AR [2]; read-out: Max Response): 0%
IC50 (AR [2]; read-out: RC50 (IC50)): > 10 µM
Emax (GR; read-out: Max Response): 2.11%
IC50 (GR; read-out: RC50 (IC50)): > 10 µM

From PMC9234961 (Journal of Medicinal Chemistry, 2022)
